PubChem BioAssay (NCI)
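Method: 48-hour compound exposure of cells in 96-well plates, five concentrations, linear interpolation of endpoints. GI50 is the concentration that inhibits growth by half. TGI: concentration producing complete growth inhibition.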 Where a SMILES comes first, the peptide text is derived from it. The star is where a group is joined. Cbz = O=C(OCc1ccccc1)*; CH2Cl = ClC*

test system: CAKI-1 renal; assay: DTP human tumour cell line panel, 48 h

Structure (SMILES)	TGI	GI50
CC(=O)OC12C=CC(=O)N1c1ccccc1C(=O)O2 (centres undefined)	> 100 µM	–
Oc1cccnc1[Se]	> 100 µM	–
COc1cc(-c2cc(-c3cc4c([nH]c5ccccc54)c(-c4cc(OC)c(OC)c(OC)c4)n3)cc(-c3ccccc3)n2)cc(OC)c1OC	> 100 µM	5.67 µM
CC(C)Oc1ccc2cc(-c3nn(CC4CCNCC4)c4ncnc(N)c34)ccc2c1	22.9 µM	10.9 µM
CS(=O)(=O)CCNCc1nc(-c2ccc3ncnc(Nc4ccc(OCc5cccc(C(F)(F)F)c5)cc4)c3c2)cs1	> 25 µM	> 25 µM
CC(C)CC(NC(=O)OCc1ccccc1)C(=O)NC(Cc1ccccc1)C(=O)CCl (stereo not drawn) (Cbz-Leu-Phe-CH2Cl; configuration not given here)	12.5 µM	–
CCOC(=O)C(Cc1ccc(CCCC(=O)NCCC(=O)Nc2ccc3nc(C)sc3c2)cc1)C(=O)OCC	> 100 µM	49.1 µM
NCCNc1c2c(c(NCCN)c3[nH]ccc13)C(=O)c1ccccc1C2=O	0.777 µM	< 0.042 µM
COc1cc(Cn2c(-c3ccccc3)c(Cl)c3c2-c2oncc2CC3)cc(OC)c1	> 100 µM	5.24 µM
O=C(CC1(O)C(=O)N(Cc2ccccc2)c2ccc(F)cc21)c1ccc(C(=O)NCC2CCC3(CC2)OOC2(CCCCC2)OO3)cc1 (centres undefined)	0.954 µM	0.464 µM
COc1cc2c3c(n(C)c(=O)c2cc1OC)-c1cc2c(cc1/C3=C\CN)OCO2	1.81 µM	0.132 µM

test system: UO-31 renal; assay: DTP human tumour cell line panel, 48 h

Structure (SMILES)	TGI	GI50
O=C(O)Cc1cc(Cl)ccc1O	> 100 µM	–
O=C(c1ccccc1)c1cc2ccccc2o1	> 100 µM	21.3 µM
O=C(Nc1ccncc1)C(=O)c1cn(S(=O)(=O)c2ccc(F)cc2)c2ccccc12	48.3 µM	2.64 µM
COc1ccc(C(=O)/C=C/c2cc(-c3cc(OC)c(OC)c(OC)c3)n[nH]2)cc1OC	2.57 µM	1.28 µM
C=C(C)[C@@H]1CC[C@]2(C)[C@H](CC=C3[C@@H]4CC(C)(C)CC[C@]4(C(N)=O)CC[C@]32C)[C@@]1(C)CCC#N	7.52 µM	2.55 µM
COc1c(OC[C@H](O)CN2CCOCC2)ccc2c3n(c(=NC(=O)c4cccnc4C)nc12)CCN3	> 50 µM	0.263 µM
COc1ccc(-c2nc3ccc(-c4nc5ccc(N6CCN(c7ccccc7)CC6)cc5[nH]4)cc3[nH]2)cc1OC	> 100 µM	51.4 µM
O=C(N[C@@H](c1ccc(Cl)c(Cl)c1)C1CNC1)c1ccc2cnccc2c1	10 µM	0.543 µM
CO/N=C(\COc1ccc2c(c1)oc(=O)c1cc(OC)ccc12)c1ccc(OC)cc1	> 100 µM	> 100 µM
O=C1OCC2=C1C(c1cccc(Br)c1)c1cc3c(cc1N2CCO)CCC3 (centres undefined)	8.2 µM	0.0997 µM
Nc1nc(/C=C\c2ccc([N+](=O)[O-])s2)nc(N2CCCC2)n1	22.2 µM	7.58 µM
Clc1ccc2[nH]cc(-c3nnnn3-c3ccccc3)c2c1	> 100 µM	26.9 µM
CC(=O)OC12C=CC(=O)N1c1ccccc1C(=O)O2 (centres undefined)	> 100 µM	–
Oc1cccnc1[Se]	> 100 µM	–
COc1cc(-c2cc(-c3cc4c([nH]c5ccccc54)c(-c4cc(OC)c(OC)c(OC)c4)n3)cc(-c3ccccc3)n2)cc(OC)c1OC	74.4 µM	3.02 µM
CC(C)Oc1ccc2cc(-c3nn(CC4CCNCC4)c4ncnc(N)c34)ccc2c1	18.9 µM	4.15 µM
CS(=O)(=O)CCNCc1nc(-c2ccc3ncnc(Nc4ccc(OCc5cccc(C(F)(F)F)c5)cc4)c3c2)cs1	> 25 µM	> 22.6 µM
CC(C)CC(NC(=O)OCc1ccccc1)C(=O)NC(Cc1ccccc1)C(=O)CCl (stereo not drawn) (Cbz-Leu-Phe-CH2Cl; configuration not given here)	18.2 µM	–
CCOC(=O)C(Cc1ccc(CCCC(=O)NCCC(=O)Nc2ccc3nc(C)sc3c2)cc1)C(=O)OCC	> 76.8 µM	26.9 µM
NCCNc1c2c(c(NCCN)c3[nH]ccc13)C(=O)c1ccccc1C2=O	> 60 µM	13.8 µM
CCOC(=O)Nc1ccc(-c2nc(-c3cccc(OCCN4CCOCC4)c3)c(-c3ccnc(Br)c3)[nH]2)cc1	> 100 µM	2.72 µM
COc1cc(Cn2c(-c3ccccc3)c(Cl)c3c2-c2oncc2CC3)cc(OC)c1	27.7 µM	4.16 µM
O=C(CC1(O)C(=O)N(Cc2ccccc2)c2ccc(F)cc21)c1ccc(C(=O)NCC2CCC3(CC2)OOC2(CCCCC2)OO3)cc1 (centres undefined)	0.352 µM	0.18 µM
COc1cc2c3c(n(C)c(=O)c2cc1OC)-c1cc2c(cc1/C3=C\CN)OCO2	> 41.1 µM	0.621 µM
CC[C@H]1[C@@H]2C=C[C@@H]3[C@H]4C/C=C\C(=O)NCCC[C@@H]5NC(=O)/C(=C(O)/C=C/[C@@H]4C[C@@H]3[C@H]2C[C@H]1C)C5=O	1.91 µM	0.546 µM

test system: OVCAR-5 ovarian; assay: DTP human tumour cell line panel, 48 h

Structure (SMILES)	TGI	GI50
O=C(O)Cc1cc(Cl)ccc1O	> 100 µM	–
O=C(c1ccccc1)c1cc2ccccc2o1	> 100 µM	> 100 µM
O=C(Nc1ccncc1)C(=O)c1cn(S(=O)(=O)c2ccc(F)cc2)c2ccccc12	> 100 µM	7.96 µM
COc1ccc(C(=O)/C=C/c2cc(-c3cc(OC)c(OC)c(OC)c3)n[nH]2)cc1OC	3.03 µM	1.59 µM
C=C(C)[C@@H]1CC[C@]2(C)[C@H](CC=C3[C@@H]4CC(C)(C)CC[C@]4(C(N)=O)CC[C@]32C)[C@@]1(C)CCC#N	> 100 µM	4.35 µM
COc1c(OC[C@H](O)CN2CCOCC2)ccc2c3n(c(=NC(=O)c4cccnc4C)nc12)CCN3	> 50 µM	0.171 µM
COc1ccc(-c2nc3ccc(-c4nc5ccc(N6CCN(c7ccccc7)CC6)cc5[nH]4)cc3[nH]2)cc1OC	4.48 µM	2.21 µM
O=C(N[C@@H](c1ccc(Cl)c(Cl)c1)C1CNC1)c1ccc2cnccc2c1	14.2 µM	0.34 µM
CO/N=C(\COc1ccc2c(c1)oc(=O)c1cc(OC)ccc12)c1ccc(OC)cc1	> 100 µM	> 100 µM
O=C1OCC2=C1C(c1cccc(Br)c1)c1cc3c(cc1N2CCO)CCC3 (centres undefined)	10 µM	0.322 µM
Nc1nc(/C=C\c2ccc([N+](=O)[O-])s2)nc(N2CCCC2)n1	30.7 µM	15.7 µM
Clc1ccc2[nH]cc(-c3nnnn3-c3ccccc3)c2c1	> 89.8 µM	21.8 µM
CC(=O)OC12C=CC(=O)N1c1ccccc1C(=O)O2 (centres undefined)	> 100 µM	–
Oc1cccnc1[Se]	> 100 µM	–
COc1cc(-c2cc(-c3cc4c([nH]c5ccccc54)c(-c4cc(OC)c(OC)c(OC)c4)n3)cc(-c3ccccc3)n2)cc(OC)c1OC	> 100 µM	25.7 µM
CC(C)Oc1ccc2cc(-c3nn(CC4CCNCC4)c4ncnc(N)c34)ccc2c1	24.1 µM	11.9 µM
CS(=O)(=O)CCNCc1nc(-c2ccc3ncnc(Nc4ccc(OCc5cccc(C(F)(F)F)c5)cc4)c3c2)cs1	> 25 µM	> 25 µM
CC(C)CC(NC(=O)OCc1ccccc1)C(=O)NC(Cc1ccccc1)C(=O)CCl (stereo not drawn) (Cbz-Leu-Phe-CH2Cl; configuration not given here)	15.3 µM	–
CCOC(=O)C(Cc1ccc(CCCC(=O)NCCC(=O)Nc2ccc3nc(C)sc3c2)cc1)C(=O)OCC	> 100 µM	> 100 µM
NCCNc1c2c(c(NCCN)c3[nH]ccc13)C(=O)c1ccccc1C2=O	0.96 µM	0.279 µM
CCOC(=O)Nc1ccc(-c2nc(-c3cccc(OCCN4CCOCC4)c3)c(-c3ccnc(Br)c3)[nH]2)cc1	> 100 µM	5.11 µM
COc1cc(Cn2c(-c3ccccc3)c(Cl)c3c2-c2oncc2CC3)cc(OC)c1	> 100 µM	47 µM
O=C(CC1(O)C(=O)N(Cc2ccccc2)c2ccc(F)cc21)c1ccc(C(=O)NCC2CCC3(CC2)OOC2(CCCCC2)OO3)cc1 (centres undefined)	4.89 µM	1.17 µM
COc1cc2c3c(n(C)c(=O)c2cc1OC)-c1cc2c(cc1/C3=C\CN)OCO2	> 35.7 µM	2.16 µM
CC[C@H]1[C@@H]2C=C[C@@H]3[C@H]4C/C=C\C(=O)NCCC[C@@H]5NC(=O)/C(=C(O)/C=C/[C@@H]4C[C@@H]3[C@H]2C[C@H]1C)C5=O	3.5 µM	1.66 µM

test system: TK-10 renal; assay: DTP human tumour cell line panel, 48 h

Structure (SMILES)	TGI	GI50
O=C(O)Cc1cc(Cl)ccc1O	> 100 µM	–
O=C(c1ccccc1)c1cc2ccccc2o1	> 100 µM	> 100 µM
